Measured values published in patent US20160199463A1, “HDAC2 DEFENDS VASCULAR ENDOTHELIUM FROM INJURY” (The Johns Hopkins University, priority 2014, published 2016).
Entries after “also recorded” stand apart in the source; their conditions may differ. Like-named read-outs stand apart in the source and are kept apart here. Values belong to the compound of their own block, whether it stands above or below them. Numbered stars: 1 amine (or outer) side, 2 acyl side, 3 side chain; on linkers, the order of the positions; unused ones are H or OH. Bridge positions count the residues as written; N and C are the ends. Square brackets hold non-standard residues; d marks the D form. Peptide text beside a SMILES is read from it. I, II: the chains in the order shown. Actinocin(9to1) = Cc1c2oc3c(C)ccc(C(=O)[*:1])c3nc-2c(C(=O)[*:2])c(N)c1=O; NMeV = CN[C@H](C(=O)O)C(C)C; Sar = CNCC(=O)O

How the values were obtained:
[1] = tested on: Arg2; test: Arg2 protein expression in HAECs (Western blot); format: cell-based, human
Protocol: (§1) After 48 hrs of HAEC cells transfection, cells were lysed in ice cold RIPA lysis buffer consisting of 20 mM Tris-HCl at pH 7.5, 150 mM NaCl, 1 mM EDTA, 1 mM EGTA, 1% NP40, 1% sodium deoxycholate, 1 mM Na3VO4, 2.5 mM sodium pyrophosphate, 1 mM 3-glycerophosphate, 1 μg/mL leupeptin, and a 1:1000 diluted protease inhibitor cocktail (Sigma). For immunoprecipitation studies, whole cell lysate lysates were centrifuged at 14,000×g and supernatants were precleared by incubation with Protein A/G-agarose beads for 2 h at 4° C. with rocking. Agarose beads were then pelleted by centrifugation at 1,000×g. FLAG-Arg2 in precleared lysates were immunoprecipitated by incubation overnight at 4° C. with rocking following addition of anti-FLAG antibody (10 μl). Immune complexes were eluted in 2×SDS sample buffer by boiling for 5 minutes before loading into SDS-PAGE. Western blotting analysis was performed by transferring the SDS gel onto a PVDF membrane and visualized using secondary antibodies conjugated to alkaline phosphatases.

[2] = tested on: Arg2 mRNA; test: Arg2 mRNA in HAECs (RT-PCR, real-time PCR); format: cell-based, human
Protocol: Total RNA was extracted from segments of mice aortas and HAEC using Trizol and PureLink (Invitrogen). RNA was then reverse transcribed with oligo dT primers to obtain cDNA and quantitative real time PCR (Applied Biosystems) was performed using SYBR Green Supermix mix (Applied Biosystems) whereas semiquantitative RTPCR was performed using conventional Biorad PCR machine and the following primer sets: Real Time PCR data are expressed as “fold change”, which is calculated as 2-ΔΔCt.

[3] = tested on: arginase activity in HAECs; test: Arginase activity assay (urea production) in HAEC lysates; format: cell-based, human
Protocol: HAEC were lysed using RIPA buffer (50 mM of Tris.HCl, pH 7.5, 0.1 mM EDTA, 0.1% Triton X-100, and protease inhibitor), and centrifuged for 30 min at 14,000 g at 4° C. 50 μL (50-100 μg) of supernatant was added to 75 μl of 10 mM MnCl2 made in Tris-HCl (50 mM, pH 7.5) and heat activated by incubating at 55-60° C. for 10 min. 50 μL of L-Arginine that was prepared in 300 mM Tris-HCL, pH 9.7 were then added to the activated cell lysates to achieve final concentrations of 150 mM and incubated at 37° C. for 3 hrs with shaking. The reaction was stopped by adding 400 μL of an acid solution (H2SO4: H3PO4: H20=1:3:7). For colorimetric determination of urea, α-isonitrosopropiophenone (25 μL, 9% in ethanol) was added and further heated at 100° C. for 45 min. Samples were allowed to cool at room temperature in the dark for 10 min and urea concentration was determined by measuring absorbance at 550 nm using a spectrophotometer.

[4] = tested on: SIRT; details: cited from earlier work
[5] = tested on: aortic rings of wild-type mice; test: Force tension (wire) myography, vascular relaxation of isolated wild-type mouse aortic rings; format: cell-based
Protocol: Mouse aorta was isolated and cleaned in ice-cold Krebs-Ringer-bicarbonate solution containing the following (in mM): 118.3 NaCl, 4.7 KCl, 1.6 CaCl2, 1.2 KH2 PO4, 25 NaHCO3, 1.2 MgSO4, and 11.1 dextrose. The aorta was immersed in a bath filled with constantly oxygenated Krebs buffer at 37° C. Equal size thoracic aortic rings (2 mm) were mounted using a microscope, ensuring no damage to the smooth muscle or endothelium. One end of the aortic rings was connected to a transducer, and the other to a micromanipulator. Aorta was passively stretched to an optimal resting tension using the micromanipulator, after which a dose of 60 mM KCl was administered, and repeated after a wash with Krebs buffer. After these washes, all vessels were allowed to equilibrate for 20-30 min in the presence of indomethacin (3 μM). Phenylephrine (1 μM) was administered to induce vasoconstriction. A dosedependent response (1 nM to 10 μM), with the muscarinic agonist, ACH or nitric oxide donor, SNP, was then performed as necessary. The responses were repeated in the presence of inhibitors. Relaxation responses were calculated as a percentage of tension following pre-constriction. Sigmoidal dose-response curves were fitted to data with the minimum constrained to 0. Two to four rings were isolated from each animal and the number of animals in each group (n) was 6.

[6] = tested on: NEDD8; test: Protein NEDDylation in HAECs (immunoblot, immunoprecipitation); format: cell-based, human; details: HAEC expressing HA-tagged-NEDD8; MLN4924 0, 0.1, 0.3 or 1 μM, dose-dependent
Protocol: FIG. 21A-FIG. 21H is a series of graphs and photographs of immunoblots showing inhibition of NEDDylation by MLN4924 improves OxLDL-mediated vascular endothelial dysfunction via downregulation of Arginase 2. Wire myography was used to measure vasorelaxation with acetylcholine (FIG. 21A, Ach) and sodium nitroprusside (FIG. 21B, SNP) in isolated mice aortas. Conditions included 24 h of OxLDL (50 μg/mL) or control medium preceded by 1 h with either vehicle (DMSO) or MLN4924 (1 μM). […] Note that native (and not transgene) HDAC2 protein levels are shown here. […] Note that “0 μgHA-NEDD8” denotes an empty vector (pcDNA3.1) control. *Indicates p b 0.05 vs control; **indicates p b 0.001; n=6 for vascular reactivity and arginase activity assays.
Densitometry analysis of data from three experiments is shown in top panel. […] Note that “0 μg HA-NEDD8” denotes an empty vector (pcDNA3.1) control. […] Western blots in this figure are representative of 3 independent experiments.

[7] = tested on: HDAC2; test: HDAC2 protein expression in HAECs (immunoblot); format: cell-based, human
Protocol: as §1

[8] = MS275 2 μmol/L, CI994 1 μmol/L, MC1568 0.5 μmol/L, PC34051 100 nmol/L, MGCD0103 1 μmol/L
[9] = preincubation 8 h, MLN4924 1 μM or MG132 10 μM, then OxLDL 50 μg/mL 24 h

HAEC arginase activity, short-term ([3]; 30 minutes, nicotinamide 5 mmol/L, TSA 1 μmol/L): activating effect
SMILES: NC(=O)c1cccnc1 [Nicotinamide]
Arg2 protein levels ([1]; nicotinamide 5 mmol/L): no effect
Arg2 mRNA expression ([2]; nicotinamide 0.1 or 0.2 mmol/L, 18 hours): No changes
Arg2 mRNA levels ([2]; nicotinamide (5 mmol/L) as printed): no effect
IC50 [4]: < 50 µM

SMILES: Cc1c2oc3c(C)ccc(C(=O)N[C@@H]4C(=O)N[C@H](C(C)C)C(=O)N5CCC[C@H]5C(=O)N(C)CC(=O)N(C)[C@@H](C(C)C)C(=O)O[C@@H]4C)c3nc-2c(C(=O)N[C@@H]2C(=O)N[C@H](C(C)C)C(=O)N3CCC[C@H]3C(=O)N(C)CC(=O)N(C)[C@@H](C(C)C)C(=O)O[C@@H]2C)c(N)c1=O [actinomycin D] (I: T[dV]P[Sar][NMeV] / II: T[dV]P[Sar][NMeV]; ester I:1-I:C, II:1-II:C; linker I:N-II:N via Actinocin(9to1))
TSA (1 μmol/L) effect on Arg2 expression in pretreated cells ([1]; pretreatment with actinomycin D or cycloheximide (10 μg/mL)): failed to increase
OxLDL-induced rise in Arg2 mRNA levels ([2]; with Actinomycin D): ablated

SMILES: Nc1ccccc1NC(=O)c1ccc(CNC(=O)OCc2cccnc2)cc1 [MS275, Entinostat]
endothelial Arg2 expression, class-specific HDAC inhibitors [1, 8]: no substantial effects

SMILES: COc1ccc(Cn2ccc3ccc(C(=O)NO)cc32)cc1 [PCI-34051]
endothelial Arg2 expression, class-specific HDAC inhibitors [1]: no substantial effects; also recorded: slight increase

arginase activity in the absence of OxLDL ([3]; MLN4924 1 μM): decreased
OxLDL-induced increase in activity of endothelial arginase [3, 9]: abolished
SMILES: NS(=O)(=O)OC[C@@H]1C[C@@H](n2ccc3c(N[C@H]4CCc5ccccc54)ncnc32)C[C@@H]1O [MLN4924]
OxLDL-induced increase in abundance of endothelial arginase [1, 9]: abolished
endothelium-independent responses to SNP, dose-dependent vasorelaxation ([5]; MGCD0103, MLN4924 or both, FIG. 29B): no significant differences
endothelial function (acetylcholine dose response) in OxLDL-exposed aortas ([5]; MLN4924 1 μM 1 h before OxLDL 50 μg/mL 24 h): Substantial rescue
Ach response in WT aorta ([5]; MLN4924 1.0 μM pretreatment): did not cause any significant changes
vascular endothelial dysfunction induced by MGCD0103 ([5]; MLN4924 1.0 μM together with MGCD0103): did not reverse
endothelial-dependent vascular relaxation, compound alone ([5]; MLN4924 1 μM without OxLDL): negligible effect
endothelial-independent vascular relaxation (sodium nitroprusside) ([5]; OxLDL 50 μg/mL 24 h, MLN4924 1 μM): unaffected
quantity of NEDDylation conjugates [6]: attenuated
HDAC2 protein expression in the absence of OxLDL ([7]; MLN4924 0, 0.1, 0.3 or 1 μM): robust dose-dependent increase
HDAC2 levels in OxLDL-exposed HAEC ([7]; pretreatment 8 h, MLN4924 1 μM or MG132 10 μM, then OxLDL 50 μg/mL 24 h): rescued

SMILES: CC(=O)Nc1ccc(C(=O)Nc2ccccc2N)cc1 [CI994, Tacedinaline]
endothelial Arg2 expression, class-specific HDAC inhibitors [1, 8]: no substantial effects
